# Measurements reported in patent US12005107B2, “Compositions comprising recombinant Bacillus cells and a fungicide” (priority 2014, dated 2024).
# Test system: Maize
# Experiment: Plant growth promotion, maize whole plant biomass after drench of growing media
# Assay type: in vivo
substance,measurement,setting,value
trifloxystrobin,"Efficacy % (additional % of plant weight compared with untreated control, actual effect observed)","drench at planting, after 14 days",1%
same,"Found % (plant weight, 100% = untreated control)","drench at planting, after 14 days, relative to UTC",101%
same,Whole Plant Biomass,"growing media drenched at planting, measured after 14 days, trifloxystrobin 0.024 mg/pot, BEE 7.85 × 10^8 CFU/pot",2.69 g
